The text below walks through data of US20180338980A1, “AROMATIC SULFONAMIDE DERIVATIVES” (BAYER PHARMA AKTIENGESELLSCHAFT, priority 2015, published 2018).

Assay type in all cases: cell-based
Assay [1] deals with T1, P2X4 (Homo sapiens, UniProt Q99571).
T1 sequence (Q99571 1-388): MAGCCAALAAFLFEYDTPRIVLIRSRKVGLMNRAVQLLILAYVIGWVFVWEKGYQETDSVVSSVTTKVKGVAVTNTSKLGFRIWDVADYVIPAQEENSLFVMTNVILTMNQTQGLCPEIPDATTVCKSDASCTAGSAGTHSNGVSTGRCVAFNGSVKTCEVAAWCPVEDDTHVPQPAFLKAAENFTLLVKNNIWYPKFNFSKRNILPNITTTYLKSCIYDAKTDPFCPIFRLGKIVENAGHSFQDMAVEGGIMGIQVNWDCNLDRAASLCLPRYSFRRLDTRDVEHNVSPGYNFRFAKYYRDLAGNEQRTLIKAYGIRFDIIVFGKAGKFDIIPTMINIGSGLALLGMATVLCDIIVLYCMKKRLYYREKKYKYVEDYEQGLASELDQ
As to the kind of experiment: Assay B: human P2X4 receptor cell line, mitochondrial photina luminescence (agonist Bz-ATP at EC50). The settings on record: HEK human P2X4 cell line, photina luminescence, agonist Bz-ATP at EC50, average; for Emax: read-out: human P2X4 Assay B avg Efficacy. Details: host or cells: HEK 293 (recombinant, constitutively expressing; with mitochondrial photina in Assay B). The procedure, abridged: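 Bz-ATP at its EC50 activates human P2X4 stably expressed in a cell line that also carries the calcium-sensitive photoprotein mitochondrial photina (coelenterazine cofactor). Light emitted on calcium influx is measured straight away in a luminometer. Reduced luminescence indicates antagonism.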

Assay [2] addresses T1, P2X4. As to the kind of experiment: Human whole blood assay (human WBA): IL-13 production after LPS priming and ATP stimulation. The conditions noted are these: IL-13 in human whole blood, LPS 100 ng/ml 2 h then ATP 3 mM 1 h; total concentration. Details: from tissue; host or cells: human whole blood of healthy female volunteers. As to the method: Human whole blood assay (human WBA) was prepared from the blood of healthy female volunteers. In this assay, the efficacy of P2X4 antagonists on the production of IL-13 in whole blood after ATP stimulation (3 mM for 1 h) following priming of the cells with lipopolysacaride (LPS, 100 ng/ml for 2 h) was evaluated. After incubation, supernatant was taken following centrifugation and the formation of IL-13 was assayed using standard ELISA kits. IC50 values were calculated using GraphPad PRISM program with nonlinear regression curve fit. Data are presented as total concentration.

In assay [3] the target is T1, P2X4. As to the kind of experiment: Assay A: human P2X4 receptor cell line, FLIPR calcium assay (Fluo-8, agonist Bz-ATP at EC80). Details: host or cells: HEK 293 (recombinant, constitutively expressing; with mitochondrial photina in Assay B). The conditions noted are these: HEK human P2X4 cells, Fluo-8 FLIPR; for pIC50: Bz-ATP at EC80, average values; for Emax: percentage of maximal inhibition, read-out: human P2X4 Assay A avg Efficacy. An outline of the steps:
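Antagonism read as inhibition of the calcium response to EC80 Bz-ATP, by peak-over-basal Fluo-8 fluorescence over 120 s, normalized to DMSO wells. Human P2X4-HEK cells, dye-loaded 30 min in probenecid-containing HBSS/HEPES pH 7.4, received compound 30 min beforehand at room temperature, 0.5% DMSO final. Triplicates fitted for IC50, maximal inhibition and Hill slope.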

Another assay concerns the target T2, mouse P2X4 receptors (Mus musculus, UniProt Q9JJX6).
T2 construct: host or cells: HEK 293 (recombinant, constitutively expressing)
T2 sequence (Q9JJX6 1-388): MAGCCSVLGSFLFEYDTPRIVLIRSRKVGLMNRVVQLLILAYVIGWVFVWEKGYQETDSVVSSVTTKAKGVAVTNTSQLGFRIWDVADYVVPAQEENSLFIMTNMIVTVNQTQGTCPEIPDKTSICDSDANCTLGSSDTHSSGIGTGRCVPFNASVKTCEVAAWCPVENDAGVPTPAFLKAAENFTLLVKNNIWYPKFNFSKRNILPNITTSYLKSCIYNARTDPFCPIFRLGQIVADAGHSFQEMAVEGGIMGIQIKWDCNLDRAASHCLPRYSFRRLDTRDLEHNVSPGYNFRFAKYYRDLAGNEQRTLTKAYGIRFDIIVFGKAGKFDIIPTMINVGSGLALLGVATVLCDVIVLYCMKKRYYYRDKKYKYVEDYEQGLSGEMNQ
The assay can be described thus: Assay B: mouse P2X4 receptor cell line, Fluo8 fluorescence FLIPR (agonist Bz-ATP at EC50). The conditions noted are these: HEK mouse P2X4 cell line, agonist Bz-ATP at EC50, average. The method, then: The identification of agonists and antagonists of the P2X4 receptor from humans and […] also the quantification of the activity of the compounds of the invention was performed by use of recombinant cell lines. […] The test cell lines constitutively express the mouse or human P2X4 receptors. Stimulation of the receptors with an agonist leads to a conformational change of P2X4 and influx of extracellular calcium ions through the ion channel. The cytoplasmatic calcium transient is detected via the calcium sensitive dye Fluo8 for the mouse P2×4 cell line or in case of the human P2×4 cell line a stably expressed calcium-sensitive photoprotein, mitochondrial photina, which, after reconstitution with the cofactor coelenterazine, emits light in dependence of calcium binding [Bovolenta S, Foti M, Lohmer S, Corazza S., J Biomol Screen. […] The strength of Fluo8 fluorescence signal or photina luminescence signal corresponds to the level of receptor activation. An inhibitor would decrease the signal depending on its potency and concentration.
On the day of the assay medium is exchanged by Fluo8 containing buffer for 30 minutes. In the fluorescence reader (FLIPR) test substances in various concentrations are added for 10 minutes. After baseline measurement the agonist Bz-ATP at EC50 concentration is applied and fluorescence is measured immediately.

pIC50: −log10 of the molar value. Where only a bound is given, the exact number is not on record here.

What is called pIC50 is −log10 of the IC50, conventionally taken in molar units. Consider `N#Cc1cccc(Oc2ccc(NC(=O)Cc3ccccc3Cl)cc2S(N)(=O)=O)c1` [Example 015, 2-(2-Chlorophenyl)-N-[4-(3-cyanophenoxy)-3-sulfamoylphenyl]acetamide], for which the pIC50 on P2X4 [1] is 7.60; at P2X4 [2], 5.60; on P2X4 [3], 7.24; on mouse P2X4 receptors, 6.83. Also, the Emax was determined as 80% on P2X4 [1] and 71% on P2X4 [3]. Besides, on mouse P2X4 receptors, the “mouse P2X4 Assay B avg Efficacy” value is 45%.
`NS(=O)(=O)c1cc(NC(=O)Cc2ccccc2Cl)ccc1OCc1ccccc1F` [Example 137, 2-(2-Chlorophenyl)-N-{4-[(2-fluorobenzyl)oxy]-3-sulfamoylphenyl}acetamide]: the pIC50 was 7.48 at P2X4 [1], 7.46 on P2X4 [3] and 5.76 on mouse P2X4 receptors. The Emax on P2X4 [1] came out at 98%; on P2X4 [3] it was 88%. The “mouse P2X4 Assay B avg Efficacy” value on mouse P2X4 receptors is 66%.
As for `COc1ccc(CC(=O)Nc2ccc(Oc3ccc(Cl)cc3)c(S(N)(=O)=O)c2)cc1` [Example 229, N-[4-(4-Chlorophenoxy)-3-sulfamoylphenyl]-2-(4-methoxyphenyl)acetamide], the figures for the negative logarithm of the IC50 (pIC50) at P2X4 [1], at P2X4 [2] and on P2X4 [3] were 7.11, 4.52 and 6.33, respectively. The values for the Emax at P2X4 [1] and on P2X4 [3] were 56% and 63%, respectively.
On to `CN(C)C(=O)c1cccc(CC(=O)Nc2ccc(Oc3cccc(Cl)c3)c(S(N)(=O)=O)c2)c1` [Example 202, 3-(2-{[4-(3-Chlorophenoxy)-3-sulfamoylphenyl]amino}-2-oxoethyl)-N,N-dimethylbenzamide], for which the pIC50 on P2X4 [1] is 6.56; at P2X4 [3], 6.92; on mouse P2X4 receptors, 6.02. Further, the Emax came out at 83% at P2X4 [1] and 72% on P2X4 [3]. In addition, on mouse P2X4 receptors, the “mouse P2X4 Assay B avg Efficacy” value is 60%.
Turning to `NS(=O)(=O)c1cc(NC(=O)Cc2ccccc2Cl)ccc1OCc1ccccc1` [Example 141, N-[4-(Benzyloxy)-3-sulfamoylphenyl]-2-(2-chlorophenyl)acetamide], the Emax on P2X4 [1] is 69%; at P2X4 [3], 96%. This compound also had a pIC50 at mouse P2X4 receptors of 5.95. For the same compound, the “mouse P2X4 Assay B avg Efficacy” value on mouse P2X4 receptors came out at 66%.
Consider `NS(=O)(=O)c1cc(NC(=O)Cc2cc(F)ccc2Cl)ccc1Oc1cccc(Cl)c1` [Example 099, 2-(2-Chloro-5-fluorophenyl)-N-[4-(3-chlorophenoxy)-3-sulfamoylphenyl]acetamide], for which, at P2X4 [1], the pIC50 was 7.66 and the Emax was 55%. Also, on P2X4 [3], the pIC50 was 6.77 and the Emax was found to be 77%. Also, on mouse P2X4 receptors, the negative-log IC50 (pIC50) is 6.09 and the “mouse P2X4 Assay B avg Efficacy” value stood at 67%.
On to `NS(=O)(=O)c1cc(NC(=O)Cc2ccccc2Cl)ccc1Oc1ccc(-n2ccnc2)cc1` [Example 042, 2-(2-Chlorophenyl)-N-{4-[4-(1H-imidazol-1-yl)phenoxy]-3-sulfamoylphenyl}acetamide], for which, at P2X4 [1], the negative logarithm of the IC50 (pIC50) is 6.34 and the Emax is 90%. At P2X4 [3], the negative logarithm of the IC50 (pIC50) is 6.62 and the Emax worked out at 89%. In addition, on mouse P2X4 receptors, the pIC50 was under 4.30 and the “mouse P2X4 Assay B avg Efficacy” value turned out to be 54%.
In the case of `NS(=O)(=O)c1cc(NC(=O)Cc2ccccc2Cl)ccc1Oc1cnc(Cl)c(Cl)c1` [Example 036, 2-(2-Chlorophenyl)-N-{4-[(5,6-dichloropyridin-3-yl)oxy]-3-sulfamoylphenyl}acetamide], the pIC50 on P2X4 [1] is 7.17; at P2X4 [3], 6.97; at mouse P2X4 receptors it was under 4.30. Besides, the Emax on P2X4 [1] was found to be 79%; at P2X4 [3], 81%. Further, at mouse P2X4 receptors, the “mouse P2X4 Assay B avg Efficacy” value turned out to be 15%.
For `NC(=O)c1cccc(Oc2ccc(NC(=O)Cc3ccccc3Cl)cc2S(N)(=O)=O)c1` [Example 017, 3-(4-{[(2-Chlorophenyl)acetyl]amino}-2-sulfamoylphenoxy)benzamide], on P2X4 [1], the negative-log IC50 (pIC50) is 7.26 and the Emax came out at 65%. At P2X4 [3], the negative-log IC50 (pIC50) was 7.21 and the Emax was found to be 86%. For the same compound, at mouse P2X4 receptors, the pIC50 is 6.09 and the “mouse P2X4 Assay B avg Efficacy” value was found to be 44%.
Consider `N#Cc1ccc(COc2ccc(NC(=O)Cc3ccccc3Cl)cc2S(N)(=O)=O)cc1` [Example 138, 2-(2-Chlorophenyl)-N-{4-[(4-cyanobenzyl)oxy]-3-sulfamoylphenyl}acetamide], for which, at P2X4 [1], the pIC50 was 7.57 and the Emax came out at 56%. On P2X4 [3], the negative logarithm of the IC50 (pIC50) is 8.40 and the Emax was determined as 67%. At mouse P2X4 receptors, the negative logarithm of the IC50 (pIC50) is 5.03 and the “mouse P2X4 Assay B avg Efficacy” value was 41%.
Consider `NS(=O)(=O)c1cc(NC(=O)Cc2ccccc2Cl)ccc1OCc1cccc(Cl)c1` [Example 139, N-{4-[(3-Chlorobenzyl)oxy]-3-sulfamoylphenyl}-2-(2-chlorophenyl)acetamide], for which the values for the pIC50 at P2X4 [1], on P2X4 [3] and on mouse P2X4 receptors were 7.37, 7.59 and 6.21, respectively. Moreover, the Emax was 63% on P2X4 [1] and 82% on P2X4 [3]. The “mouse P2X4 Assay B avg Efficacy” value at mouse P2X4 receptors was 52%.
Consider `NS(=O)(=O)c1cc(NC(=O)Cc2ccccc2Cl)ccc1Oc1ccccn1` [Example 013, 2-(2-Chlorophenyl)-N-[4-(pyridin-2-yloxy)-3-sulfamoylphenyl]acetamide], for which the Emax at P2X4 [1] stood at 71%; on P2X4 [3], 93%. In addition, the negative logarithm of the IC50 (pIC50) on mouse P2X4 receptors was under 4.80. The “mouse P2X4 Assay B avg Efficacy” value on mouse P2X4 receptors came to 31%.
Take `NS(=O)(=O)c1cc(NC(=O)Cc2ccc(C(F)(F)F)cc2)ccc1OCc1ccccn1` [Example 152, N-[4-(Pyridin-2-ylmethoxy)-3-sulfamoylphenyl]-2-[4-(trifluoromethyl)phenyl]acetamide]: at P2X4 [1], the pIC50 was 6.37 and the Emax turned out to be 89%. Also, at P2X4 [3], the negative logarithm of the IC50 (pIC50) is under 4.60 and the Emax was 47%. Also, at mouse P2X4 receptors, the pIC50 was under 4.30 and the “mouse P2X4 Assay B avg Efficacy” value turned out to be 35%.
Consider `NS(=O)(=O)c1cc(NC(=O)Cc2cccc(F)c2Cl)ccc1Oc1cccc(Cl)c1` [Example 098, 2-(2-Chloro-3-fluorophenyl)-N-[4-(3-chlorophenoxy)-3-sulfamoylphenyl]acetamide], for which, at P2X4 [1], the negative logarithm of the IC50 (pIC50) is 7.60 and the Emax came out at 57%. In addition, on P2X4 [3], the negative logarithm of the IC50 (pIC50) was 8.15 and the Emax was 95%. At mouse P2X4 receptors, the negative-log IC50 (pIC50) is 6.41 and the “mouse P2X4 Assay B avg Efficacy” value was found to be 69%.
